Results reported in US20140323354A1, “Chemically Modified Ligase Cofactors, Donors and Acceptors” (priority 2010, published 2014).

Molecular target: T1, T4 DNA ligase (Enterobacteria phage T4, UniProt P00970)
T1 construct: purchased New England Biolabs
Assay: Ligation yield with modified ATP cofactors on matched and mismatched templates, PAGE analysis
Type: biochemical, bacteriophage T4
Details: for discrimination of modified cofactor between matched and mismatched templates: matched T-A versus mismatched C-A, G-A, A-A, panel of ten modified cofactors at 1 mM
Description: Each 20 μL reaction was performed in buffer containing 50 mM Tris-HCl (pH 7.5), 10 mM MgCl2, 10 mM dithiothreitol, 25 μg/ml bovine serum albumin. 1 mM ATP was added to the buffer separately. The donor (LP3′T w/PBS), acceptor (Com3F w/PBS), and template (Alg) were at 0.1 μM equimolar amounts. The acceptor, donor, and template were denatured at 95° C. for 3 minutes and annealed at 4° C. for 3 minutes. Ligation was initiated by adding 400 units of T4 ligase (New England Biolabs) to each reaction. Ligation proceeded at 16° C. for 20 minutes. Ligation was terminated by heating the reaction to 65° C. for 10 minutes and adding an equal volume of 2×TBE-Urea buffer (Invitrogen). Samples were run on 6% TBE-Urea Novex gels (Invitrogen). The gels were stained with SYBR Gold nucleic acid stain (Invitrogen) according to manufacturer's protocol.
ATP analogs were compared to the corresponding natural ATP cofactor for their ability to join matched and mismatched templates (FIG. 4). ATP analogs were evaluated for relative ligation yield in the presence of matched template (LP3′T Acceptor w/PBS and Alg template; T-A matched base pair at the 3′-end of the acceptor strand) to the relative yield when a mismatched template was used (LP3′C Acceptor w/PBS and Alg template; C-A mismatched base pair on 3′-end of the acceptor strand). Reactions were performed as described for Example 1, with a cofactor of interest included in the reaction at 1 mM concentration. Natural ATP substrate was compared to the following modified cofactors: 7-deaza-ATP (7-deaza-adenosine-5′-triphosphate), N1-methyl-ATP (N1-methyl-adenosine-5′-triphosphate), 2-amino-ATP (2-amino-adenosine-5′-triphosphate), 2′-amino-2′-deoxy-ATP (2′-amino-2′-deoxyadenosine-5′-triphosphate), 3′-amino-2′,3′-dideoxy-ATP (3′-amino-2′,3′-dideoxy-adenosine-5′-triphosphate) (FIG. 4). All modified cofactors supported ligation with similar efficiency to natural ATP when a matched template was employed.
One method of determining the ligation yield of a ligation component of interest (e.g., modified ligase cofactors, modified donors or modified acceptors) is by assigning a specificity number. Specificity numbers can be determined for example, by dividing the ligation yield of a matched case by the ligation yield of a mismatched case where a single base pair differs relative to the matched case. […] The yields are then normalized to the template readings in the same reaction, with subsequent normalization to the ligation yield for a reaction including the natural (ATP) cofactor, where ATP has a normalized yield of 1.0. For example, in the case of 2′-deoxy-ATP (2′-deoxy-adenosine-5′-triphosphate; FIG. 4), the ligation yield in the matched case (LP3′T Acceptor w/PBS and Alg template; T-A matched base pair on 3′ end of the acceptor strand) was 1.34. In the mismatched case (LP3′C Acceptor w/PBS and Alg template; C-A mismatched base pair on 3′ end of the acceptor strand) the ligation yield was 0.18. Accordingly, the specificity number assigned to 2′-deoxy-ATP in a C-A mismatch case was 1.34÷0.18 or 7.44. A value greater than one is indicative of improved ligation specificity. A value less than one is indicative of reduced ligation specificity.
ATP analogs were compared to the natural ATP cofactor for their ability to join matched and mismatched templates for relative ligation yield in the presence of matched template (LP3′T Acceptor w/PBS and Alg template; T-A matched base pair on 3′-end of the acceptor strand) relative to the yield of templates which contained a mismatched base pair on 3′-end of the acceptor: 1) LP3′C Acceptor w/PBS and Alg template; C-A mismatch, 2) LP3′G Acceptor w/PBS and Alg template; G-A mismatch, and 3) LP3′A Acceptor w/PBS and Alg template; A-A mismatch (FIG. 5). Reactions were performed as described for Example 1, with a cofactor of interest included in the reaction at 1 mM concentration. […]

T1 sequence (P00970 whole entry): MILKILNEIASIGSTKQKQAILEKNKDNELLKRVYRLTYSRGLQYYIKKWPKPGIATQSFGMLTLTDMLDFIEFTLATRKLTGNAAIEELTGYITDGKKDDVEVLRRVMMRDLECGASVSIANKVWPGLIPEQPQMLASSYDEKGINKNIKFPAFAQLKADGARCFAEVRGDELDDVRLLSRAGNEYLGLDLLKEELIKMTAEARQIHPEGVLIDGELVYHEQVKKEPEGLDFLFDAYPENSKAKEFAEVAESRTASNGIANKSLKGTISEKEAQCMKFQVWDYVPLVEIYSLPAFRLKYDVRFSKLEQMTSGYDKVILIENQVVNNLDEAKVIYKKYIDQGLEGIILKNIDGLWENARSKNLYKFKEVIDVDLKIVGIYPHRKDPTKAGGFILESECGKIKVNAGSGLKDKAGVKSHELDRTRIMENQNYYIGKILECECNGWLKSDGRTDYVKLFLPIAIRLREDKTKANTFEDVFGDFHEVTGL

Row | SMILES | ligation yield in the mismatched case (LP3′C Acceptor w/PBS and Alg template, C-A mismatched base pair on 3′ end of acceptor, cofactor 1 mM, normalized to ATP = 1.0) | ligation yield in the matched case (LP3′T Acceptor w/PBS and Alg template, T-A matched base pair on 3′ end of acceptor, cofactor 1 mM, normalized to ATP = 1.0) | specificity number (matched (T-A) yield divided by mismatched (C-A) yield, greater than one = improved ligation specificity) | discrimination of modified cofactor between matched and mismatched templates
1 | Nc1ncnc2c1ncn2[C@H]1C[C@H](O)[C@@H](COP(=O)(O)OP(=O)(O)OP(=O)(O)O)O1 [2′-deoxy-ATP, 2′-deoxy-adenosine-5′-triphosphate] | 0.18 | 1.34 | 7.44 | lead modifications of interest
2 | Nc1ncnc2c1ncn2[C@H]1C[C@H](N)[C@@H](COP(=O)(O)OP(=O)(O)OP(=O)(O)O)O1 [3′-amino-2′,3′-dideoxy-adenosine-5′-triphosphate] | – | – | – | lead modifications of interest
3 | Nc1ncnc2c1ncn2[C@@H]1O[C@H](COP(O)(=S)OP(=O)(O)OP(=O)(O)O)[C@@H](O)[C@H]1O (stereo partly drawn) [5′-alpha-thio-adenosine-5′-triphosphate] | – | – | – | lead modifications of interest
